From patent US4937184A, “N-demethylefrotomycin” (Pfizer Inc., priority 1989, dated 1990)
Values after ≈ are worked out from the molar mass of the structure shown.

Experiments:
Past. haem. 010 = assay: Mouse protection test, i.p. infection with multilethal amounts of Past. haem. 010; type: in vivo, mice; details: subcutaneous, infected i.p. with multilethal amounts of Past. haem. 010
Procedure: Additionally, compound (I) is tested in vivo by the well-known mouse protection test, or by a microbiological (bioassay) determination of serum levels in a variety of mammals (e.g., mouse, rat, dog). For example, at subcutaneous doses of either 100 mg./kg. or 25 mg./kg., there was survival of 5/5 mice infected i.p. with multilethal amounts of Past. haem. 010.

Hemoph. pleur. = assay: In vitro MIC in brain heart infusion (BHI) broth, Hemoph. pleur.; type: cell-based; details: 24 h
Source text: (§1) Generally twelve 2 fold dilutions of the test compound are employed, with initial concentration of the test drug being in the range of 50 to 200 mcg./ml. The susceptibility (MIC) of the test organism is accepted as the lowest concentration of compound capable of producing complete inhibition of growth as judged by the naked eye.

Past. haem. = assay: In vitro MIC in brain heart infusion (BHI) broth, Past. haem.; type: cell-based
Source text: as §1

Past. mult = assay: In vitro MIC in brain heart infusion (BHI) broth, Past. mult; type: cell-based; details: 48 h
Source text: as §1

E. coli = assay: In vitro MIC in brain heart infusion (BHI) broth, E. coli; type: cell-based; details: Escherichia coli
Source text: as §1

Acto. pyog. = assay: In vitro MIC in brain heart infusion (BHI) broth, Acto. pyog.; type: cell-based; details: 24 h
Source text: as §1

Lact. acidoph. = assay: In vitro MIC in brain heart infusion (BHI) broth, Lact. acidoph.; type: cell-based; details: 24 h, strain 001, replicate Day 1
Source text: as §1

## CC=CC=CC1OC(O)(C(CC)C(=O)NCC=CC=C(C)C(OC)C(C)C2OC(C=CC=CC=C(C)C(=O)c3c(O)cc[nH]c3=O)C(O)C2O)C(O)C(OC2OC(C)C(OC3OC(C)C(OC)C(O)C3OC)C(OC)C2O)C1(C)C (stereo not shown) [N-Demethylefrotomycin, N-demethylefrotomycin]
Past. haem. 010; 25 mg./kg.
  survival: 5/5
Past. haem. 010; 100 mg./kg.
  survival: 5/5
Hemoph. pleur.; strain 004, replicate Day 1
  MIC: 12.5 µg/mL (≈ 11 µM)
Hemoph. pleur.; strain 005, replicate Day 1
  MIC: 12.5 µg/mL (≈ 11 µM)
Past. haem.; 24 h
  MIC: 12.5 µg/mL (≈ 11 µM)
Past. haem.; 48 h
  MIC: 12.5 µg/mL (≈ 11 µM)
Past. haem.; strain 046, replicate Day 2, BHI broth
  MIC: 12.5 µg/mL (≈ 11 µM)
Past. mult
  MIC: 12.5 µg/mL (≈ 11 µM)
E. coli; 24 h, strain 124, replicate Day 1
  MIC: > 100 µg/mL
E. coli; 48 h, strain 124, replicate Day 2
  MIC: > 100 µg/mL
Acto. pyog.; strain 002, replicate Day 1
  MIC: 12.5 µg/mL (≈ 11 µM)
Acto. pyog.; strain 008, replicate Day 1
  MIC: 12.5 µg/mL (≈ 11 µM)
Lact. acidoph.
  MIC: 12.5 µg/mL (≈ 11 µM)
